Assay results: the supplement of paper PMC6045584
± gives the standard deviation of the averaged measurements.

Tests used:
[1] = compound: C[C@@H](Oc1cc(-c2cnn(C3CCNCC3)c2)cnc1N)c1c(Cl)ccc(F)c1Cl [CRIZOTINIB]; assay: surviving fraction relative to DMSO-only wells; higher = less growth inhibition; details: exposure time: 5 days
Summary of the method: (§1)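 Surviving fraction is CellTiter-Glo luminescence divided by the median of wells given DMSO only. For this, log-phase tumour cell lines went into 384-well plates at 250–500 cells per well and, 24 hours later, into five days of continuous inhibitor exposure at 0.5, 1, 5, 10, 50, 100, 500 and 1000 nM. Lines were screened three times and retained only if replicate Pearson r >0.7 and median Z' >0.3.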

[2] = compound: O=C(c1cc(Cc2n[nH]c(=O)c3ccccc23)ccc1F)N1CCN(C(=O)C2CC2)CC1 [OLAPARIB]; assay: as above; details: exposure time: 5 days
Summary of the method: as §1

Row | Test System | surviving fraction ([1]; 0.5 nM) | surviving fraction ([1]; 1 nM) | surviving fraction ([1]; 5 nM) | surviving fraction ([1]; 10 nM) | surviving fraction ([1]; 50 nM) | surviving fraction ([1]; 100 nM) | surviving fraction ([2]; 0.5 nM) | surviving fraction ([2]; 1 nM) | surviving fraction ([2]; 5 nM) | surviving fraction ([2]; 10 nM) | surviving fraction ([2]; 50 nM) | surviving fraction ([2]; 100 nM) | surviving fraction ([2]; 500 nM) | surviving fraction ([2]; 1000 nM) | surviving fraction ([1]; 500 nM) | surviving fraction ([1]; 1000 nM)
1 | SCC47 HEADNECK | 1.11 ± 0.056 | 1.08 ± 0.068 | 1.13 ± 0.048 | 1.16 ± 0.034 | 1.18 ± 0.018 | 1.15 ± 0.11 | 1.1 ± 0.09 | 0.994 ± 0.062 | 1.14 ± 0.042 | 1.07 ± 0.086 | 1.08 ± 0.098 | 0.989 ± 0.079 | 0.977 ± 0.043 | 1.03 ± 0.11 |  | 
2 | MG63 BONE | 1.05 ± 0.04 | 1.07 ± 0.053 |  | 1.11 ± 0.043 | 1.07 ± 0.051 | 1 ± 0.052 | 1.03 ± 0.034 | 1.061 ± 0.0049 | 1.06 ± 0.031 | 1.06 ± 0.033 | 1.023 ± 0.001 | 1.024 ± 0.01 | 0.939 ± 0.027 | 0.879 ± 0.019 | 0.827 ± 0.034 | 0.743 ± 0.031
3 | CAL72 BONE | 1.09 ± 0.13 | 1.09 ± 0.13 | 1.09 ± 0.12 | 1.11 ± 0.17 | 1.08 ± 0.15 | 1.1 ± 0.11 | 1.05 ± 0.017 | 1.098 ± 0.0086 | 1.0433 ± 0.00058 | 1.06 ± 0.033 | 0.98 ± 0.029 | 0.958 ± 0.027 | 0.949 ± 0.021 | 0.901 ± 0.029 | 0.859 ± 0.15 | 0.814 ± 0.17
4 | CME SYNOVIAL | 1.23 ± 0.11 | 1.23 ± 0.1 | 1.36 ± 0.16 |  | 1.21 ± 0.1 | 1.18 ± 0.022 | 1.29 ± 0.3 | 1.27 ± 0.059 | 1.23 ± 0.11 | 1.16 ± 0.22 | 0.737 ± 0.14 | 0.616 ± 0.051 | 0.386 ± 0.053 | 0.303 ± 0.021 | 0.65 ± 0.035 | 0.286 ± 0.033
5 | 93VU HEADNECK | 1.08 ± 0.14 | 1.09 ± 0.072 | 1.08 ± 0.12 | 1.16 ± 0.037 | 1.14 ± 0.14 | 1.18 ± 0.081 | 1.02 ± 0.1 | 1.01 ± 0.074 | 1.12 ± 0.033 | 1.07 ± 0.09 | 0.955 ± 0.072 | 0.955 ± 0.03 | 0.92 ± 0.049 | 0.837 ± 0.096 |  | 0.853 ± 0.038
6 | 143B BONE |  |  | 1.08 ± 0.012 |  | 1.09 ± 0.015 |  | 1.025 ± 0.0014 | 1.044 ± 0.0092 | 1.04 ± 0.019 | 1 ± 0.025 | 1.05 ± 0.027 | 1.01 ± 0.017 | 1.02 ± 0.023 | 0.9915 ± 0.005 |  | 0.865 ± 0.011
7 | SUM149 BREAST | 1.08 ± 0.024 | 1.05 ± 0.075 |  | 0.96 ± 0.033 | 1.01 ± 0.13 |  | 0.951 ± 0.21 | 0.911 ± 0.082 | 0.927 ± 0.11 | 0.84 ± 0.01 | 0.722 ± 0.054 | 0.624 ± 0.059 | 0.511 ± 0.084 | 0.336 ± 0.051 | 0.817 ± 0.07 | 0.51 ± 0.072
8 | SCC90 HEADNECK | 1.06 ± 0.036 | 0.972 ± 0.058 | 1.04 ± 0.087 | 1.1 ± 0.067 | 1.08 ± 0.0074 | 1.12 ± 0.066 | 1.07 ± 0.066 | 1.04 ± 0.093 | 1.06 ± 0.062 | 1.1 ± 0.063 | 0.994 ± 0.037 | 0.942 ± 0.14 | 0.968 ± 0.087 | 0.931 ± 0.091 | 0.9977 ± 0.0097 | 0.762 ± 0.085
9 | S68 BREAST | 0.895 ± 0.078 | 1.16 ± 0.3 | 1.04 ± 0.55 | 0.981 ± 0.1 | 1.17 ± 0.26 |  | 0.986 ± 0.17 | 0.927 ± 0.014 | 0.925 ± 0.23 | 0.896 ± 0.16 | 0.941 ± 0.084 | 0.771 ± 0.26 | 0.715 ± 0.15 | 0.612 ± 0.097 | 0.417 ± 0.11 | 0.361 ± 0.049
10 | U2OS BONE | 1.02 ± 0.026 | 1.05 ± 0.033 | 1.03 ± 0.042 | 1.05 ± 0.029 |  | 1.05 ± 0.013 | 1.08 ± 0.045 | 1.05 ± 0.069 | 1.06 ± 0.044 | 1.07 ± 0.04 | 1.05 ± 0.055 | 1.01 ± 0.046 | 0.945 ± 0.018 | 0.877 ± 0.032 | 0.539 ± 0.023 | 0.459 ± 0.033
11 | MCF7 BREAST | 0.963 ± 0.04 |  | 0.967 ± 0.011 | 0.968 ± 0.042 | 1 ± 0.025 | 0.981 ± 0.021 | 0.891 ± 0.015 | 0.941 ± 0.014 | 0.946 ± 0.085 | 0.907 ± 0.037 | 0.96 ± 0.039 | 0.906 ± 0.051 | 0.95 ± 0.026 | 0.943 ± 0.043 | 1 ± 0.05 | 0.617 ± 0.035
12 | SUM44 BREAST | 1.28 ± 0.41 | 1.26 ± 0.39 |  | 1.25 ± 0.42 | 1.33 ± 0.42 | 1.36 ± 0.47 | 0.903 ± 0.012 | 0.911 ± 0.059 | 0.924 ± 0.083 | 0.909 ± 0.071 | 0.97 ± 0.068 | 0.958 ± 0.063 | 0.894 ± 0.066 | 0.861 ± 0.022 | 1.25 ± 0.46 | 1.17 ± 0.43
13 | SIHA CERVIX | 1.08 ± 0.044 | 1.06 ± 0.079 | 1.12 ± 0.053 | 1.14 ± 0.061 | 1.06 ± 0.046 | 1.09 ± 0.059 | 0.988 ± 0.022 | 1.07 ± 0.13 | 1.02 ± 0.073 | 1.03 ± 0.044 | 0.967 ± 0.053 | 1.04 ± 0.061 | 0.91 ± 0.067 | 0.886 ± 0.061 | 0.9 ± 0.028 | 0.662 ± 0.014
14 | VCAP PROSTATE | 1.09 ± 0.13 | 0.987 ± 0.1 | 1.13 ± 0.2 | 1.09 ± 0.02 | 1.02 ± 0.15 |  | 1.17 ± 0.067 | 1.1 ± 0.074 | 1.17 ± 0.089 | 1.04 ± 0.13 | 1.08 ± 0.09 | 1.09 ± 0.12 | 1.03 ± 0.089 | 0.922 ± 0.074 | 0.504 ± 0.013 | 0.36 ± 0.04
15 | HUO3N1 BONE | 1.03 ± 0.016 | 1.02 ± 0.049 | 1.117 ± 0.0087 | 1.07 ± 0.083 |  |  | 1.008 ± 0.0076 | 1.01 ± 0.024 | 1.06 ± 0.029 | 1.02 ± 0.031 | 1.03 ± 0.045 | 0.922 ± 0.032 | 0.913 ± 0.014 | 0.834 ± 0.02 |  | 0.787 ± 0.061
16 | YAMATO SYNOVIAL | 1.13 ± 0.056 | 1.1 ± 0.15 | 1.2 ± 0.14 | 1.1 ± 0.1 | 0.563 ± 0.036 | 0.324 ± 0.031 | 1.38 ± 0.12 | 1.4 ± 0.08 | 1.49 ± 0.062 | 1.37 ± 0.11 | 0.894 ± 0.084 | 0.871 ± 0.092 | 0.819 ± 0.02 | 0.738 ± 0.044 | 0.221 ± 0.021 | 0.269 ± 0.021
17 | ASKA SYNOVIAL |  | 0.942 ± 0.039 | 0.848 ± 0.05 | 0.7377 ± 0.007 | 0.539 ± 0.043 | 0.405 ± 0.016 | 1.16 ± 0.13 | 1.13 ± 0.043 | 1.14 ± 0.096 | 1.06 ± 0.09 | 0.936 ± 0.051 | 0.921 ± 0.044 | 0.772 ± 0.056 | 0.655 ± 0.071 | 0.168 ± 0.0038 | 0.205 ± 0.0093
18 | MDAMB436 BREAST | 1.01 ± 0.032 | 0.97 ± 0.11 | 1.02 ± 0.086 | 1.03 ± 0.13 | 0.965 ± 0.11 | 1.07 ± 0.022 | 0.888 ± 0.1 | 0.878 ± 0.08 | 0.806 ± 0.056 | 0.795 ± 0.039 | 0.651 ± 0.011 | 0.606 ± 0.022 | 0.537 ± 0.022 | 0.469 ± 0.031 |  | 0.916 ± 0.1
19 | H23 LUNG | 1.04 ± 0.058 | 1.02 ± 0.025 | 1.07 ± 0.04 | 1.08 ± 0.02 | 1.06 ± 0.062 | 1.11 ± 0.059 | 1.09 ± 0.03 | 1.07 ± 0.02 | 1.1 ± 0.022 | 1.064 ± 0.004 | 1.22 ± 0.03 | 1.13 ± 0.041 | 1.14 ± 0.0042 | 1.08 ± 0.02 | 1.11 ± 0.072 | 
20 | COLO320DM LARGE INTESTINE | 1.13 ± 0.11 | 1.12 ± 0.055 | 1.11 ± 0.056 | 1.04 ± 0.092 | 1.21 ± 0.051 | 1.12 ± 0.092 | 1.13 ± 0.19 | 0.997 ± 0.15 | 1.09 ± 0.046 | 1.03 ± 0.21 | 1.07 ± 0.091 | 1.03 ± 0.082 | 1.06 ± 0.048 | 0.991 ± 0.03 | 0.622 ± 0.015 | 0.398 ± 0.043
21 | PCI30 HEADNECK | 1.07 ± 0.075 | 1.12 ± 0.058 | 1.02 ± 0.028 | 1.1 ± 0.072 | 1.03 ± 0.024 |  | 0.973 ± 0.043 | 0.969 ± 0.12 | 1.03 ± 0.016 | 1.02 ± 0.095 | 0.98 ± 0.069 | 0.92 ± 0.052 | 0.856 ± 0.057 | 0.744 ± 0.05 | 0.759 ± 0.055 | 0.6787 ± 0.0025
22 | SYO1 SYNOVIAL | 0.967 ± 0.015 | 1.03 ± 0.029 | 0.953 ± 0.094 | 1 ± 0.028 | 0.978 ± 0.042 | 0.891 ± 0.018 | 0.992 ± 0.055 | 0.95 ± 0.053 | 0.924 ± 0.045 | 0.881 ± 0.06 | 0.724 ± 0.025 | 0.6731 ± 0.0055 | 0.564 ± 0.044 | 0.429 ± 0.027 | 0.399 ± 0.03 | 0.169 ± 0.008
